Results published in US20100092456A1, “METHODS OF TREATMENT” (priority 2006, published 2010).

What was measured:
HeLa cells = assay: Apoptosis of HeLa cells by nuclear morphology; assay type: cell-based; details: 600 microMolar, 24 hours
Procedure: HeLa cell were transiently transfected with expression plasmids encoding for the listed proteins. Cell were then treated with 600 microMolar H2O2 for 24 hours. All cells were collected and examined for apoptosis (Example 5).
The inventors have shown that type I PIP kinase protects cells from ROS induced apoptosis. HeLa cells were transiently transfected with expression plasmids encoding for the listed proteins. Cells were then treated with 600 microMolar H2O2 for 24 hours. All cells were collected and examined for apoptosis. Apoptosis was determined by examining nuclear morphology of green cells (GFP Histone) after staining with a nuclear stain. Cells with fragmented nuclei were scored positive for apoptosis. […] Ectopic expression of PIP 5-K protects HeLa cells from apoptosis after H2O2 treatment. Results are in FIG. 11.

[1] = tested on: PtdIns(4,5)P2 in HeLa cells; assay: PtdIns(4,5)P2 levels visualised with GFP-PH domain of PLCdelta1 probe in HeLa cells; assay type: cell-based; details: 600 microMolar H2O2, no recovery hours after stimulation
From the text: Changes in intracellular PtdIns(4,5)P2 levels following stimulation with neurokinin A were visualised in real time using a fusion protein of GFP and the PH domain of PLCdelta1 as a probe. GFP PLC delta 1 is a highly specific in vivo probe for PIP2 in cells.
HeLa cells were transiently transfected with an expression plasmid encoding a fusion protein of GFP and the PH domain of PLCdelta1.
HeLa cells were transiently transfected with an expression plasmid encoding a fusion protein of GFP and the pleckstrin homology domain of PLCdelta1. GFP PLC delta1 is a highly specific in vivo probe for PtdIns(4,5)P2 in cells. Results are in FIG. 10.

PIP 5-K = target: T1, PIP 5-K (Mus musculus, UniProt P70181); assay: Localisation of GFP PIP 5-K in HeLa cells by confocal laser scanning microscopy; assay type: cell-based; details: 600 microMolar, away from the plasma membrane
T1 construct: expressed in transfected cells; host or cells: HeLa cells
T1 sequence (P70181 whole entry): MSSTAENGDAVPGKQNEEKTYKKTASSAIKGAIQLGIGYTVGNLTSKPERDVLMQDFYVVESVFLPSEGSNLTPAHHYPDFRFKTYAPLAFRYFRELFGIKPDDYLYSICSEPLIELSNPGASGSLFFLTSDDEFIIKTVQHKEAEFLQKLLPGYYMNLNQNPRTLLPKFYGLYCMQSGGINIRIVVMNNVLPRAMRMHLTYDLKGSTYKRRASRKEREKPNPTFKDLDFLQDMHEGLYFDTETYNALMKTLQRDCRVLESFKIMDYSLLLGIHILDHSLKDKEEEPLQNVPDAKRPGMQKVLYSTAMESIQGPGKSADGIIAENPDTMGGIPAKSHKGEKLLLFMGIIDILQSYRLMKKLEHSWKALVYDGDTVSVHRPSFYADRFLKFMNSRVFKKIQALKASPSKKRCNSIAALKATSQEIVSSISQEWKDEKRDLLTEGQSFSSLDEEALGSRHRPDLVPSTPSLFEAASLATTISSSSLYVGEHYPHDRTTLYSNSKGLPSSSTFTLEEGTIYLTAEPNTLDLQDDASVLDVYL
Procedure: Panel A: HeLa cell were transiently transfected with expression plasmids encoding for a GFP fusion protein of PIP 5-K. In healthy cells GFP PIP 5-K is located at the plasma membrane. Cells were then treated with 600 microMolar H2O2 and the localisation of the GFP PIP 5-K was monitored on line using confocal laser scanning microscopy.
HeLa cells were transiently transfected with expression plasmids encoding for a GFP fusion protein of PIP 5-K. In healthy cells GFP PIP 5-K is located at the plasma membrane. Cells were then treated with 600 microMolar H2O2 and the localisation of the GFP PIP 5-K was monitored on line using confocal laser scanning microscopy. […] H2O2 regulates the localisation of the enzyme in vivo. (FIG. 12, panel A)

[2] = tested on: nuclear PtdIns4P and PtdIns5P in differentiated MEL cells; assay: Mass assay of nuclear PtdIns4P and PtdIns5P in differentiated MEL cells; assay type: cell-based, Murine; details: NAC 5 mM or BSO 100 μM for 4 hours, H2O2 500 μM for 15 minutes, vs control-treated cells
Procedure: B) Differentiated MEL cells were treated with NAC (5 mM) or BSO (100 μM), each for 4 hours, or H2O2 (500 μM) for 15 minutes prior to the isolation of intact nuclei. A mass assay was used to determine the levels of PtdIns4P and PtdIns5P. The results are expressed as % of control-treated differentiated MEL cells and are calculated from 3 independent experiments.
MEL, HEK 293 and HT1080 cells were maintained in routine culture using 10% FCS in DMEM. When required, differentiated MEL cells were prepared by the addition of 1.5% DMSO to the culture medium for a period of 4 days. MEL cells were transfected using Effectene (Qiagen), HEK 293 cells with calcium phosphate and HT1080 with LT1 (Mirus corporation). The following plasmids were used: pEGFP, pCDNA3 (both from Clontech), pCDNA3-Flag-MKK6+ and pCDNA3-Flag-MKK6-(from Dr. M. Schmidt, The Netherlands Cancer Institute), pSuper (from Dr. R. Agami, The Netherlands Cancer Institute), pCDNA3-EGFP-IpgD/IpgE, pCDNA3-EGFP-PIP kinase typeIIβ, and RNAi for type II β PIP kinase (termed pSuper-IIβRNAi). The targeting sequence for the latter was […]. Irradiation of the cells with 254 nm UV-C light (0-200 J/m) or gamma rays (0-40 Gy, from a Cesium 137 source) was performed using 6-well or 10 cm plastic petri dishes with a depth of medium covering the cells not exceeding 3-4 mm. Thereafter, the cells were returned to normal culture conditions for 30 minutes before subcellular fractionation was started. To determine long terms effects of UV and gamma irradiation the cells were returned to normal culture conditions for up to 48 hours.
MEL cells were washed, twice in ice cold PBS before their fractionation using a detergent-free hypotonic buffer. This method yields a mixed cytosol and membrane fraction and intact nuclei after separation using a sucrose cushion. MEL cell nuclei were fractionated into nucleoplasm and the CEF using modifications of a previously published method. Briefly, intact MEL cell nuclei were resuspended in ice cold hypotonic buffer (3 mM EDTA, 0.2 mM EGTA and 1 mM DTT pH 7.85, with protease inhibitors) followed by forced passage (12 times) through a 25 gauge needle. After centrifugation (1700 g) the supernatant (the nucleoplasm) was saved. The pellet (CEF) was washed twice before resuspending by sonication in 10 mM TrisHCl, 10% sucrose, 10 mM MgCl2 pH 7.4, with protease inhibitors. The protein content of all fractions was determined using the Bradford reagent (BioRad). PtdIns4P and PtdIns5P were measured using in vitro mass assays employing recombinant type I and type II PIP kinases, respectively. The product PtdIns(4,5)P2 was separated by TLC. The amount of radioactivity found in PtdIns(4,5)P2 was proportional to the amount of PtdInsP isomer in the neomycin affinity-purified lipid extract.
However, no studies have determined a role for nuclear phosphoinositides or defined downstream protein targets mediating phosphoinositide-stress activated pathways. To study changes in nuclear phosphoinositides in response to cellular stress, we used Murine erythroleukaemia (MEL) cells as a model system because preparations of nuclei from these cells have been proven to be of high purity. To visualise changes in phosphoinositides, various independent methods were used. The mass level of both PtdIns4P and PtdIns5P were measured using an assay that relies on the differential in vitro specificities of type I and type II PIP kinases. […] Gamma irradiation (10 Gy) led to a small (approximately 20%) decrease in the PtdIns4P level but no detectable change in the level of PtdIns5P in whole nuclei (FIG. 1a). To determine if nuclear PtdInsPs were regulated by oxidative stress we treated differentiated MEL cells with H2O2, BSO (L-buthionine[S,R]-sulphoximine, a glutamyl-cysteine synthetase inhibitor, which increases intracellular reactive oxygen species (ROS)) or NAC. (N-acetyl-cysteine, which increases cellular glutathione levels and cell' capability to deal with ROS). […]

localisation of GFP PIP 5-K (PIP 5-K): induces translocation
SMILES: OO [H2O2]
apoptosis (fragmented nuclei) (HeLa cells): induces apoptosis | PtdIns(4,5)P2 levels (GFP-PH probe at plasma membrane) [1]: sustained depletion | level of nuclear PtdIns4P [2]: increased | level of nuclear PtdIns5P [2]: increased
